One assay concerns the target dopamine receptors. In words: Affinity for dopamine receptors with the dopamine antagonist [^3 H]spiperone (RBSP). The note with it: in vitro. In kind it is binding. Here is the method:
(§1) Sigma binding affinities are measured using [^3 H]-(+)-3-(3'-hydroxyphenyl) N (1'-propyl)piperidine, referred to in the following Table I as 3PPP. This test is carried out according to the procedures of B. L. Largent, et al, Proc. Natl. Acad. Sci., USA, 1984; 81:5618. The affinity of the compounds of the present invention for dopamine receptors was determined in vitro with the dopamine antagonist [^3 H]spiperone according to the procedure of S. Urwyler, et al, J. Neurochem. 1986; 46:1058. The ability of the compounds to bind muscarinic antagonist sites was determined in vitro using [^3 H]-quinuclidinyl benzylate (RQNB) according to the procedure of M. Watson, et al, J. Pharmacol. Exp. Ther. 1986; 237:411.

Assay [1] concerns muscarinic antagonist sites. Put plainly: Binding to muscarinic antagonist sites using [^3 H]-quinuclidinyl benzylate (RQNB). The note with it: in vitro. The method, then: as §1
A further assay deals with sigma binding site. Put plainly: Sigma binding affinity using [^3 H]-(+)-3-(3'-hydroxyphenyl) N (1'-propyl)piperidine ([^3 H]3PPP). To be noted: [^3 H]3PPP radioligand, in vitro. The method, then: as §1

A value given as a limit tells only on which side of the number the result lay.

Four molecules from US5208343A, “Tetrahydropyridine oxime compounds” (Warner-Lambert Company, priority 1992, dated 1993) can be followed below.

`CCCN1CC=CC(CCC(=NO)c2ccccc2)C1.O=C(O)C(=O)O` (stereo not drawn) [1(e)(a), 1-Phenyl-3-(1,2,3,6-tetrahydro-1-propyl-3-pyridinyl)-1-propanone oxime oxalate]: the IC50 (as a rule, the midpoint of a concentration-inhibition curve) against dopamine receptors was over 1000 nM; at sigma binding site it was 2.07 nM. Also, the “RQNB % Inhib at 10^-6 M” value in assay [1] is 27%.

As to `CCCN1CCC=C(CCC(=NO)c2ccccc2)C1.O=C(O)C(=O)O` [1(e)(b), 1-Phenyl-3-(1,2,5,6-tetrahydro-1-propyl-3-pyridinyl)-1-propanone oxime oxalate], the IC50 against dopamine receptors was over 1000 nM; at sigma binding site, 1.99 nM. The “RQNB % Inhib at 10^-6 M” value in assay [1] came out at 10%.

As to `CCCN1CC=CC(CCC(=NO)c2ccc(OC)cc2)C1.O=C(O)C(=O)O` (stereo not drawn) [2(e)(a), 1-(4-Methoxyphenyl)-3-(1,2,3,6-tetrahydro-1-propyl-3-pyridinyl)-1-propanoneoxime oxalate], the IC50 on dopamine receptors was over 1000 nM; at sigma binding site, 6.49 nM. In addition, the “RQNB % Inhib at 10^-6 M” value in assay [1] is listed as 6%.

For `CCCN1CCC=C(CCC(=NO)c2ccc(OC)cc2)C1.O=C(O)C(=O)O` [2(e)(b), 1-(4-Methoxyphenyl)-3-(1,2,5,6-tetrahydro-1-propyl-3-pyridinyl)-1-propanone oxime oxalate], the IC50 at dopamine receptors is over 1000 nM; at sigma binding site, 2.39 nM. In addition, the “RQNB % Inhib at 10^-6 M” value in assay [1] turned out to be 9%.
